Marks after values point to notes of the source that are not given here.
Tests used:
[1] = target: T1, FRα (FRα-expressing KB cells) (Homo sapiens, UniProt P15328); assay: Relative affinity assay: displacement of [3H]FA from KB cells; format: binding; conditions: 37°C, competitor of [3H]FA, inverse molar ratio to displace 50%
T1 construct: both KB cells and CHO-FRβ cells were used as the sources of FR; endogenous in cells; host or cells: KB cells
Description: (§1) The relative affinities of EC0746, AMT, and MTX were determined according to a previously established method except that both KB cells and CHO-FRβ cells were used as the sources of FR [33]. KB cells are a human cancer cell line known for elevated expression of FRα. CHO-FRβ cells were obtained from Manohar Ratnam, Department of Biochemistry and Cancer Biology, The University of Toledo (Toledo, OH, USA). This cell line was originally generated by stable integration and amplification of a human FRβ cDNA expression construct in CHO-K1 cells.

[2] = target: T2, human FRβ (CHO-FRβ cells) (Homo sapiens, UniProt P14207); assay: Relative affinity assay: displacement of [3H]FA from CHO-FRβ cells; format: binding; conditions: 37°C, competitor of [3H]FA, inverse molar ratio to displace 50%
T2 construct: host or cells: CHO-K1 cells
Description: as §1

RAW264.7 cells = format: cell-based, murine; conditions: RAW264.7 macrophages, data not shown
Description: (§2) RAW264.7 cells in 96-well plates (3.5 × 10^4 cells/well) were treated with 10-fold serial dilutions of EC0746 (≤1 μM) in FFRPMI medium without and with 100-fold molar excess of FA. After a 2-hour exposure, the drug-containing media were replaced and the cells were allowed to incubate further for 70 hours (referred in the text as a 70-hour chase). In comparison, the cells were also treated continuously with AMT for 72 hours. Four hours prior to the end of incubation, LPS was added to the treated cells at a final concentration of 100 ng/ml. Then 100 μl culture supernatants were collected for TNFα analysis by ELISA. The cell viability was assessed by adding XTT to the remaining media for an additional 4 hours following the manufacturer's instructions. To evaluation of a cytostatic effect, RAW264.7 cells seeded at 1 × 10^6 cells/well in six-well plates were subjected to 2-hour exposure and a 70-hour chase with 0, 0.1, 10, and 1000 nM EC0746 without and with excess FA. At the end of the incubation (no LPS added), the surviving cells (that is, still viable cells) were recovered and redistributed in equal numbers in fresh medium for an additional 72 hours. The cell proliferation was again assessed by the XTT assay. All results were expressed as the percentage absorbance (minus background) relative to the untreated control cells.

[3] = tested on: TNFα production in RAW264.7 cells; assay: LPS-stimulated TNFα production (ELISA); format: cell-based, murine; conditions: RAW264.7 macrophages, data not shown
Description: as §2

rat TG-macs = assay: Viability of thioglycollate-elicited peritoneal macrophages; format: cell-based; conditions: 72-hour incubation; no effect at concentrations as high as stated
Description: Female Lewis rats (175 to 200 g) were purchased from Harlan Sprague Dawley (Indianapolis, IN, USA) and were allowed to acclimate for 1 week. To obtain peritoneal macrophages, rats were dosed intraperitoneally with an aged thioglycollate (TG) medium (20 ml/kg) and euthanized 3 days later. The peritoneal cavity of the animals was lavaged with 60 ml ice-cold phosphate-buffered saline to collect peritoneal exudate. The TG-elicited macrophages in the peritoneal fluids were obtained after a red cell lysing step and a 2-hour adherence in folate-free RPMI 1640 medium (Mediatech, Manassas, VA, USA) containing 1% heat-activated fetal calf serum and antibiotics. The purity of the resulting macrophage population (herein referred to as rat TG-macs) was determined to be ~90% pure based on CD11b/c expression (data not shown). […] Unless otherwise specified, all cells were maintained in the folate-free RPMI 1640 medium containing 10% heat-activated fetal calf serum and antibiotics (FFRPMI) under a 5% CO2 atmosphere.
Unlike RAW264.7 cells, rat TG-macs display little proliferative activity ex vivo and therefore were used in our studies to represent inflammatory macrophages in a low proliferative state. […] LPS (5 μg/ml) and IFNγ (100 ng/ml) were then added to the treated cells 24 hours prior to the end of incubation to stimulate the release of cytokines/chemokines, which were then detected with a rat cytokine antibody array.

[4] = tested on: adjuvant-induced arthritis; assay: Rat adjuvant-induced arthritis (AIA) model; format: in vivo; conditions: for Body weight change (%): day 24 relative to day 10
Description: The rats were then inoculated intradermally (at the base of tail) with 0.5 mg heat-killed M. butyricum (BD Diagnostic Systems) in 100 μl light mineral oil (Sigma-Aldrich, St Louis, MO, USA). […] For each study, two or three rats from the same colony were not induced for arthritis and were used as healthy controls.
Unless noted otherwise, all drug treatments started on day 10 after arthritis induction and lasted for two consecutive weeks with biweekly (BIW, Mondays and Thursdays) or once-weekly (QW, Mondays) dosing regimens.
EC0746 was given subcutaneously (s.c.) in a dosing range of 25 to 1,000 nmol/kg (QW or BIW); MTX was given s.c. or orally at 250 nmol/kg (BIW) or 1,650 nmol/kg (QW); and etanercept (10 mg/kg) was given s.c. once every 3 days for a 12-day span. The QW MTX dosing regimen was to mimic MTX administration in humans, and this particular dose of 1,650 nmol/kg per week (that is, 0.75 mg/kg per week) was reportedly active as an intraperitoneal agent in the AIA model. To distinguish the anti-inflammatory mechanisms of EC0746 and MTX in vivo, a therapeutically irrelevant folate-containing competitor (EC0923, molecular weight 672) was used in 500-fold molar excess to block the activities of EC0746 and MTX at 250 nmol/kg (BIW).
Formalin-fixed hind paws were examined by a board-certified veterinary radiologist who had no knowledge of the study groups. Specific criteria were used to establish a numerical grade of severity for each radiographic change: increased soft tissue volume (0 to 4), narrowing or widening of joint spaces (0 to 5), subchondral erosion (0 to 3), periosteal reaction (0 to 4), osteolysis (0 to 4), subluxation (0 to 3), and degenerative joint changes (0 to 3). Scores are limited to the tarsus, and the maximum possible score per foot was 26 [39]. The histopathological analysis was also performed in a blind fashion by an independent contract laboratory (Bolder BioPATH Inc., Boulder, CO, USA). The arthritic ankles were scored on a scale of 0 to 5 for inflammation, bone resorption, pannus formation, and cartilage damage, with a maximal histology score of 20 per foot.

[5] = Plasma pharmacokinetics after single subcutaneous dose; format: in vivo, rat; conditions: female, Lewis, rat, plasma, sc, after single s.c. dose of unconjugated AMT 500 nmol/kg
Description: Female Lewis rats with jugular vein catheters (Harlan Sprague Dawley) were used to assess the plasma pharmacokinetics of EC0746 and unconjugated AMT. The animals were divided into two main groups, one given a single dose of EC0746 s.c. and the second a single dose of AMT s.c., both at 500 nmol/kg. Whole blood samples (300 μl) were collected from three animals per time point at the following time points: 1 minute, 10 minutes, 30 minutes, 1 hour, 2 hours, 3 hours, 4 hours, and 8 hours after injection. The blood samples were placed into anticoagulant tubes containing 1.7 mg/ml K3EDTA and 0.35 mg/ml N-maleoyl-β-alanine (0.35 mg/ml) in a 0.15% acetic acid solution. Plasma samples were obtained by centrifugation for 3 minutes at ~2,000 × g and stored at -80°C. The amounts of EC0746 and AMT in the plasma and the two primary metabolites of EC0746 (AMT and AMT hydrazide) were determined by liquid chromatography/mass spectrometry/mass spectrometry.

[6] = Preliminary short-term toxicity / MTD in folate-deficient healthy rats; format: in vivo, rat; conditions: rat, in vivo, sc; healthy rats on folate-deficient diet, four s.c. doses in 2 weeks; read-out: Maximum tolerated dose (MTD)
Description: The short-term toxicity and MTD of EC0746 and AMT were evaluated in healthy rats following the standard BIW subcutaneous dosing regimen used for efficacy studies. Further, these animals were put on a folate-deficient diet for ~20 days before treatment to match the folate deficiency status of AIA rats used for therapy. The folate-deficient but nonarthritic animals were thus given increasing doses of EC0746 and AMT for two consecutive weeks on a BIW basis. […] Standard hematologic and blood chemistry parameters were examined as needed along with histopathology.

air-pouch inflammation = tested on: air-pouch inflammation; parameters: method as in PMID 16170572; conditions: murine air-pouch inflammation; cited from earlier work
arthritis = tested on: arthritis; parameters: method as in PMID 16170572; conditions: murine arthritis; cited from earlier work
[7] = oral exposure, mice; cited from earlier work
[8] = parameters: method as in PMID 10726889; conditions: rats, 0.1 mg/kg; cited from earlier work
[9] = s.c., 1,650 nmol/kg once weekly

T2 sequence (P14207 17-255): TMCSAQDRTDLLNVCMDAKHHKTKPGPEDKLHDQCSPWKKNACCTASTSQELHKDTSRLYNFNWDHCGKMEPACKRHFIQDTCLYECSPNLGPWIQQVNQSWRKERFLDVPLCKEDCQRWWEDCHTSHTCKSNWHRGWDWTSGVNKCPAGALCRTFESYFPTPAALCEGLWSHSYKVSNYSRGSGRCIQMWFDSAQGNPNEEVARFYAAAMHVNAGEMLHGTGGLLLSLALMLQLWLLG
T1 sequence (P15328 25-257): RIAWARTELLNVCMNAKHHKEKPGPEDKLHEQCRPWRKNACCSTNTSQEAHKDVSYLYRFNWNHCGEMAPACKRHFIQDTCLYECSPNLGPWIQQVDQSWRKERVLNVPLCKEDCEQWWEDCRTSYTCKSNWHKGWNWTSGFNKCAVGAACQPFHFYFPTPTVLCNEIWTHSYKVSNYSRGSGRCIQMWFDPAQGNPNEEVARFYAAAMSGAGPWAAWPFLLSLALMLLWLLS

Compound: Nc1nc(N)c2nc(CNc3ccc(C(=O)N[C@@H](CCC(=O)O)C(=O)O)cc3)cnc2n1 [AMT, aminopterin]
- Relative affinity value (FA = 1) [1]: 0.004
- Relative affinity value (FA = 1) [2]: 0.004
- Potency in inhibition of cell proliferation, AMT versus AMT hydrazide (RAW264.7 cells): equally potent
- Potency in inhibition of LPS-stimulated TNFα production, AMT versus AMT hydrazide [3]: equally potent
- Concentration affecting TG-macs viability (rat TG-macs): > 10 µM
- Tolerability in AIA rats ([4]; unmodified AMT mixed with FA (1:1), 500 nmol/kg s.c. biweekly, after one or two doses, severe anemia and gastrointestinal distress): all animals treated with the simple mixture had to be euthanized
- Tmax ([5]; 500 nmol/kg, read-out: Time to maximum concentration (converted)): ~0.5 h
- AUC ([5]; read-out: Area under the curve (converted)): 1.02 µM·h
- half-life ([5]; read-out: Elimination half-life): ~2.33 h
- Cmax ([5]; read-out: Maximum concentration in plasma): 601 nM
- MTD at 2 weeks [6]: 0.05 µmol/kg
- Potency relative to MTX (air-pouch inflammation): ~ 40 fold
- Potency relative to MTX (arthritis): ~ 20 fold
- Acute 50% lethal dose [7]: 3 mg/kg

Compound: CN(Cc1cnc2nc(N)nc(N)c2n1)c1ccc(C(=O)N[C@@H](CCC(=O)O)C(=O)O)cc1 [MTX, methotrexate, reference compound]
- Relative affinity value (FA = 1) [1]: 0.018
- Relative affinity value (FA = 1) [2]: 0.005
- Concentration affecting TG-macs viability (rat TG-macs): > 10 µM
- Decrease in summed histology score ([4]; oral, 250 nmol/kg biweekly): 73%
- Reduction in dorsal to ventral paw thickness ([4]; oral, 250 nmol/kg biweekly): 63%
- Weight loss due to disease progression ([4]; oral, 1,650 nmol/kg (0.75 mg/kg) once weekly): ~ 10%
- Splenomegaly (percentage increase in spleen weight relative to healthy rats) ([4]; p.o., 250 nmol/kg biweekly from day 10): 42 ± 17%
- Inhibition in paw edema (%) ([4]; p.o., 250 nmol/kg biweekly from day 10, paw weight day 24): 70 ± 5%
- Body weight change (%) ([4]; p.o., 250 nmol/kg biweekly): -14 ± 2%
- Inhibition in paw edema (%) ([4]; p.o., 1,650 nmol/kg once weekly, calculated based on arthritis scores on day 24): 47 ± 10^f %
- Body weight change (%) ([4]; p.o., 1,650 nmol/kg once weekly): -10 ± 2%
- Splenomegaly (percentage increase in spleen weight relative to healthy rats) ([4]; s.c., 250 nmol/kg biweekly from day 10): 24 ± 3%
- Inhibition in paw edema (%) ([4]; s.c., 250 nmol/kg biweekly from day 10, paw weight day 24): 78 ± 10%
- Anti-arthritic activity in presence of EC0923 competitor ([4]; s.c., 250 nmol/kg biweekly plus EC0923 125 μmol/kg, P > 0.05): not significantly blocked
- Body weight change (%) ([4]; s.c., 250 nmol/kg biweekly): -2 ± 4%
- Weight loss [4, 9]: ~ 7%
- Inhibition in paw edema (%) ([4]; s.c., 1,650 nmol/kg once weekly, calculated based on arthritis scores on day 24): 63 ± 13^f %
- Body weight change (%) [4, 9]: -7 ± 8%
- Oral bioavailability [8]: 21%
- Acute 50% lethal dose [7]: 89 mg/kg

Reference: article PMC3132048, “Treatment of experimental adjuvant arthritis with a novel folate receptor-targeted folic acid-aminopterin conjugate” (Arthritis Research & Therapy, 2011)
